The source of these data is ChEMBL document CHEMBL1137116, “Synthesis and structure-activity relationships of 1,5-diazaanthraquinones as antitumour compounds” (Bioorg Med Chem Lett, 2004).

One may read the IC50 as the concentration that gives 50% inhibition.

The subject of test [1] is A549. As to the kind of experiment: Cytotoxic activity against A-549 (Human lung carcinoma) cell line. The format is functional, cell-based.
In test [2] the test system is HT-29. As to the kind of experiment: Cytotoxic activity of compound against HT-29 (Human colon carcinoma) cell line. The format is functional, cell-based.
Test [3] can be described thus: Cytotoxic activity of compound against MEL-28 (Human melanoma) cell line. The settings on record: SK-MEL-28. Format: functional.

Each structure is given as a SMILES string.

`Cc1cc[n+](N(C)C)c2c1C(=O)c1nccc(Cl)c1C2=O`: the IC50 in test [1] worked out at 330 nM; in test [2], 1930 nM; in test [3] it was 330 nM.

As to `O=C1c2cccnc2C(=O)c2cccnc21`, the IC50 in test [1], in test [2] and in test [3] was 4800 nM each time.

For `Cc1ccnc2c1C(=O)c1c(C)ccnc1C2=O`, the IC50 in test [1], in test [2] and in test [3] was 2100 nM each time.

With `CCc1c(C)cnc2c1C(=O)c1c(ncc(C)c1CC)C2=O`, the half-maximal inhibitory concentration (IC50) in test [1], in test [2] and in test [3] was 8500 nM each time.

Consider `O=C1c2nccc(-c3ccccc3[N+](=O)[O-])c2C(=O)c2nccc(O)c21`, for which the IC50 in test [1], in test [2] and in test [3] was 7200 nM in each case.

Consider `CCc1cnc2c(c1)C(=O)c1ncc(CC)cc1C2=O`, for which the IC50 in test [1] was 190 nM; in test [2], 1880 nM; in test [3], 380 nM.

Regarding `Cc1ccnc2c1C(=O)c1nccc(C)c1C2=O`, the IC50 is 500 nM in test [1], 1000 nM in test [2] and 1000 nM in test [3].

Regarding `Cc1ccnc2c1C(=O)c1nccc(N(C)C)c1C2=O`, the IC50 turned out to be 370 nM in test [1], 930 nM in test [2] and 370 nM in test [3].

Turning to `CCc1cnc2c(c1)C(=O)c1cc(CC)cnc1C2=O`, the IC50 in test [1] is 450 nM; in test [2], 1880 nM; in test [3], 790 nM.

For `CCc1c(C)cnc2c1C(=O)c1ncc(C)c(CC)c1C2=O`, the IC50 in test [1], in test [2] and in test [3] was 3400 nM throughout.

As to `Cc1cnc2c(c1)C(=O)c1nccc(Cl)c1C2=O`, the IC50 in test [1] turned out to be 30 nM; in test [2], 40 nM; in test [3] it was 30 nM.

On to `Cc1cnc2c(c1)C(=O)c1cc(C)cnc1C2=O`, for which the results for the IC50 in test [1], in test [2] and in test [3] were 210 nM, 500 nM and 210 nM, respectively.

`Cc1ccnc2c1C(=O)c1nccc(Cl)c1C2=O`: the IC50 in test [1] came out at 190 nM; in test [2], 1930 nM; in test [3] it was 190 nM.

For the molecule `Cc1cnc2c(c1)C(=O)c1ncc(C)cc1C2=O`, the IC50 in test [1] was 40 nM; in test [2], 420 nM; in test [3], 40 nM.

Turning to `O=C1c2nccc(-c3ccccc3[N+](=O)[O-])c2C(=O)c2nccc(Cl)c21`, the figures for the IC50 in test [1], in test [2] and in test [3] were 30 nM, 270 nM and 30 nM, respectively.

For the molecule `O=C1c2cccnc2C(=O)c2ncccc21`, the IC50 worked out at 4800 nM in test [1], 5700 nM in test [2] and 4800 nM in test [3].

Turning to `Cc1ccnc2c1C(=O)c1nc3c(cc1C2=O)CCCC3`, the IC50 came to 4490 nM in test [1], 18000 nM in test [2] and 18000 nM in test [3].

Consider `COc1cccc2c1C(=O)c1c(O)c3c(c(O)c1C2=O)C[C@@](O)(C(=O)CO)C[C@@H]3O[C@H]1C[C@H](N)[C@H](O)[C@H](C)O1` [DOXORUBICIN], for which the IC50 in test [1] was found to be 10 nM; in test [2] it was 90 nM; in test [3], 30 nM.
